Measurements reported in patent US20230355622A1, “METHODS OF CHEMOVACCINATION AGAINST PLASMODIUM INFECTIONS” (Merck Sharp & Dohme LLC, priority 2020, published 2023).

What was measured:
PbmCherryLuci [1] = assay: Prime/boost immunisation of C57BL/6 mice with CD8 depletion before mosquito bite challenge (FIG. 4); assay type: in vivo, Plasmodium berghei; details: C57BL/6, prime/boost with 2 x 100 mg/kg P.O., 10 mosquito bites ten weeks after boost
Procedure: In addition to these protective antibody responses, the contribution of CD8 T-cells to the mechanism of immune protection was tested. Female C57BL/6 mice were immunized using a prime/boost immunisation regimen. The first immunisation was with 40,000 PbmCherryLuci salivary gland sporozoites i.v. followed by two doses of Example 1A at 100 mg/kg P.O. (given at 36 and 48 hours post infection). The second immunisation (boost) was eight weeks later, this time with 20,000 PbmCherryLuci sporozoites but with Example IA treatment as for the prime immunisation. Ten weeks after the boost immunisation (eighteen weeks after the prime immunisation) the mice were injected with 150 μg of a CD8 depleting antibody, or an isotype control non-depleting antibody the day before the mice were challenged with the bites of 10 PbmCherryLuci infected mosquitoes for 15 minutes. Giemsa stained thin blood smears were analysed until 30 days after challenge for the presence of parasites in the blood and mice were considered to be protected from infection if no blood parasites were observed within the 30 days post […].

parasite = assay: Parasite LDH growth assay (Parasite Assay), antiparasite potency; assay type: cell-based; details: 72 h
How it was run: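 Growth was read by an LDH assay after a freeze–thaw cycle (−80 °C overnight, 4 h thaw at RT). Before that, parasites grew with compound for 72 h at 37 °C under gassed, humidified conditions. The input was a ring-stage culture adjusted to 0.7% parasitemia and 2% haematocrit in serum (5%)/albumax (0.5%)-supplemented RPMI-Hepes.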

[2] = test system: PbmCherryLuci sporozoites; assay: Inhibition of liver to blood transition in C57BL/6 mice (FIG. 8); assay type: in vivo, Plasmodium berghei; details: oral gavage during liver infection
Procedure: (§1) 40,000 PbmCherryLuci sporozoites (or the indicated number of sporozoites) were inoculated i.v. and compounds were administered by oral gavage at indicated time points during liver infection. Liver infection levels and egress of parasites from the liver were measured by bioluminescence signal from the parasites using an In Vivo Imaging System (IVIS, Perkin Elmer) at the peak of liver infection (52 hours post infection, hpi), during liver egress (55 hpi) as well as during the first round of blood infection (65 hpi). Initiation of blood infection was also measured by flow cytometry at 65 hpi using the mCherry reporter to determine the parasitemia of this first round of blood infection. These analyses allowed quantification of the efficacy of drug killing of parasites in the liver (52 hpi), preventing their egress from the liver (55 hpi) or preventing their successful infection of the blood (65 hpi). Mice were monitored by giemsa stained thin blood smears for the presence of parasites in the blood for 30 days post infection. If no blood infection was seen during the subsequent 30 days, mice were declared cured of malaria infection.
C57BL/6 mice were administered Example 1A or Example 75A as described in the general experimental procedure.

PMIX = assay: Cleavage of PMIX substrates RAP1 and ASP in parasite extracts; assay type: cell-based, P. falciparum
Procedure: To confirm that Example 1A was a dual inhibitor of PMIX and PMX function, the ability of this compound to inhibit cleavage of the known PMIX substrate Rhoptry Associated Protein 1 (RAPI) in parasite extracts was tested (Pino et al., 2017). RAP1 is a merozoite rhoptry protein that is localized to the parasitophorous vacuole after invasion and processed by both PMIX and SUB1 (Pino et al., 2017). […] RAP1 was not released into the parasite supernatant because it was deposited in the parasitophorous vacuole during the invasion process (Baldi, D., Andrews, K., Waller, R., Roos, D., Howard, R., Crabb, B. and Cowman, A. (2000)). RAP1 controls rhoptry targeting of RAP2 in the malaria parasite Plasmodium falciparum. Embo Journal 19, 2435-2443.

[3] = test system: PbmCherryLuci sporozoites; assay: Immunity after chemovaccination with increasing numbers of sporozoites, BALB/c mice (FIG. 5-7); assay type: in vivo, Plasmodium berghei
Procedure: To investigate how many sporozoites are required to develop immunity, female BALB/c mice (n=3/group) were infected intravenously (i.v.) with increasing numbers of PbmCherryLuci sporozoites and cured with 2×100 mg/kg doses of Example 1A. Three months later, the chemovaccinated mice were challenged with 10 PbmCherryLuci infected mosquito bites. […] Twelve months later, the chemovaccinated mice were challenged with 10 PbmCherryLuci infected mosquito bites.

[4] = test system: P. berghei sporozoites expressing mCherry and Luciferase (PbmCherryLuci); assay: Chemoprotection of BALB/c mice infected with PbmCherryLuci sporozoites (FIG. 1); assay type: in vivo, Plasmodium berghei; details: female BALB/c mice, 40,000 sporozoites i.v.; treated twice by oral gavage at 36 and 48 hours during liver infection; 30 days monitoring
Procedure: as §1
Mice were infected with 40,000 P. berghei sporozoites expressing mCherry and Luciferase (PbmCherryLuci) and treated with Example 1A as described above. […]

PMX = PMX (Plasmodium falciparum, UniProt Q8IAS0); details: P. falciparum parasites incubated with compound; SERA5 120 kDa, processed by SUB1
Chain of PMX (Q8IAS0 222-573): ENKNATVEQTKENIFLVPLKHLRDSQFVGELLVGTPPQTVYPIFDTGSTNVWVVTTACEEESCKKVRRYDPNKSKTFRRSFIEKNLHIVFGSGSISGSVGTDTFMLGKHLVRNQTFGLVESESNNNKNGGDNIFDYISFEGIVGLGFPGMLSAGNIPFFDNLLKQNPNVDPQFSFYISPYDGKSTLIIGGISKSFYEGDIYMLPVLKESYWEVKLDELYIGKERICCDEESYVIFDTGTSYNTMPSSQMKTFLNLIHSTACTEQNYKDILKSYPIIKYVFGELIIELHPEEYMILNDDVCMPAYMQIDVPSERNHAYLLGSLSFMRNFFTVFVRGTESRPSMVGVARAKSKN
Source text: SERA5 is a 120 kDa protein required for merozoite egress and is processed by subtilisin-like protease subtilisin 1 (SUB1) to release a soluble polypeptide of approximately 50 kDa (Pino, P., Caldelari, R., Mukherjee, B., Vahokoski, J., Klages, N., Maco, B., et al. (2017). A multistage antimalarial targets the plasmepsins IX and X essential for invasion and egress. Science 358, 522-528). […] SERA5 was included as a control in all subsequent experiments as a proxy for PMX-mediated activation of SUB1.

PbmCherryLuci [5] = assay: Rechallenge of chemo-protected mice by mosquito bite infection at 6 and 12 months (FIG. 2A, 2B); assay type: in vivo, Plasmodium berghei; details: 15 infected mosquito bites
Source text: Previously chemo-protected mice were rechallenged with PbmCherryLuci 6 months later by mosquito bite infection. […] In both experiments naïve, sex matched control mice all became infected as expected. Thus in addition to chemoprotection, Example IA could possibly act as a chemovaccination to protect against future infections for one year or more.

CCC1(CC)CC(=O)N(C2CCOc3ccc(C(=O)N[C@H]4CC(C)(C)Oc5ccccc54)cc32)C(=N)N1 (stereo partly drawn) [Example 1A, 4-(4,4-diethyl-2-imino-6-oxotetrahydropyrimidin-1(2H)-yl)-N—((S)-2,2-dimethylchroman-4-yl)chroman-6-carboxamide]
blood parasites after challenge (PbmCherryLuci [1]; 150 μg CD8 depleting antibody): all had blood parasites 4 days after challenge
blood parasites after challenge (PbmCherryLuci [1]; isotype control non-depleting antibody): negative for blood parasites throughout the 30-day observation period
EC50 (parasite): 0.5 nM
infection of the blood [2]: completely prevented infection of the blood in all mice
RAP1 processing by PMIX and SUB1 (PMIX; treated parasites/merozoites, processed forms p82 and p69, unprocessed p87): only the unprocessed p87 form of RAP1 was present
Apical Sushi Protein (ASP) processing by PMIX (PMIX; treated parasites, p47 processed, p87 full-length): cleavage event was inhibited
mice with sterile protection from blood stage malaria infection ([3]; BALB/c n=3/group, immunized with 500 sporozoites i.v., 2x100 mg/kg, 3-month challenge, 10 mosquito bites): 1/3
sterile protection from blood stage malaria infection ([3]; challenge at 12 months (FIG. 7)): all mice showed sterile protection
mice that developed malaria symptoms but showed partial immunity ([3]; immunized with 500 sporozoites i.v., 2x100 mg/kg, 3-month challenge): 2/3
sterile protection from blood stage malaria infection ([3]; immunized with 1,000 sporozoites i.v., 2x100 mg/kg, 3-month challenge): showed sterile protection from blood stage malaria infection
sterile protection from blood stage malaria infection ([3]; immunized with 40,000 sporozoites i.v., 2x100 mg/kg, 3-month challenge): showed sterile protection from blood stage malaria infection
immunity on re-challenge ([3]; mice immune at 3 months, re-challenged at 6 and 12 months post initial immunization): completely immune
cure of infection / prevention of subsequent blood infection [4]: cured mice of infection
SERA5 processing (PMX): accumulation of unprocessed SERA5 at 120 kDa
immunity to reinfection challenge (PbmCherryLuci [5]; rechallenge 6 months later): all mice were subsequently immune
mice fully protected on rechallenge (PbmCherryLuci [5]; rechallenge 12 months after chemoprotection): Four of five mice were again fully protected
